From article PMC7497692 (Investigational New Drugs, 2020)
Where two headings read alike, the source gives them in different places.

Legend:
[1] = design: method as in PMID 31822497; settings: patients with solid tumors; cited from earlier work
[2] = Safety assessment (TEAEs, NCI-CTCAE v4.0); assay type: in vivo, human healthy male volunteers
Experimental: Treatment-emergent adverse events (TEAEs), changes in laboratory tests, ECG, vital signs, and physical examinations were assessed and graded using the National Cancer Institute Common Terminology Criteria for Adverse Events (NCI-CTCAE) version 4.0. All safety endpoints across both parts of the study were analyzed descriptively.

[3] = design: method as in printed; settings: preclinical results, bile-canaliculated rats, [14C]-tepotinib; ref not given; cited from earlier work
[4] = Unbound fraction of tepotinib in plasma, ex vivo equilibrium dialysis (part A); assay type: in vitro ADME, human healthy male volunteers; settings: male, human, 498 mg
Experimental: (§1) Participants were hospitalized from day 1 to day 16 of the study, and further assessed on days 19, 22, and 25 (trial end). […] Pre-dose feces and urine samples were collected on day 1 and day 2, respectively. Urine was collected at 4- to 12-h intervals on day 1 and every 24 h thereafter up to day 16. Feces were collected every 24 h up to day 16. Provision was made to collect further samples up to day 39 if >1% of the administered dose was detectable in the total (urine and feces) excreta per day on two consecutive measurements.
Plasma (300 μL) was dialyzed against 100 mM sodium phosphate buffer (pH 7.4) in an orbital shaker at 37 °C for 18 h. The deuterated internal standard [^2H]-MSC2156119A and 100 mM sodium phosphate buffer (pH 7.4) were added to 5 μL of the dialyzed samples and centrifuged. Supernatant (30 μL) was diluted with acetonitrile/water (50 + 50, v/v) and centrifuged, and 5–20 μL aliquots were injected onto an XBridge C18 column (2.1 × 20 mm; 5 μm; Waters, Milford, Massachusetts, USA). Separation was carried out using a mobile phase gradient (eluent A: 5 mM ammonium bicarbonate in water; eluent B: 5 mM ammonium bicarbonate in methanol) with a flow rate of 1.2 mL/min. Mass spectrometric detection of tepotinib and its internal standard was performed as described above. The LLOQ was 0.015 ng/mL in plasma dialysates and 1.00 ng/mL in plasma. Calibration standards between 0.015 and 30.0 ng/mL (plasma dialysates), and between 1.00 ng/mL and 1000 ng/mL (plasma) were calculated by weighted (1/x^2) quadratic regression analysis, respectively.

[5] = Metabolite profiling and identification in plasma, urine and feces (part A); assay type: in vivo, human healthy male volunteers; settings: oral part A
Experimental: as §1
Metabolite profiling and structure elucidation in plasma, urine, and feces were performed at the Institute of Drug Metabolism and Pharmacokinetics, Merck KGaA, Grafing, Germany, using a radiometric UPLC method coupled to a high-resolution MS. For urine and feces, metabolites were identified in a single pooled sample per matrix and subject (urine pool of 4–120 h and feces pool of 0–192 h), that covered at least 90% of the total radioactivity of the respective matrix excreted. Intervals with low radioactivity were not used for the generation of the pooled samples to avoid dilution, and to increase the signal-to-noise ratio of the respective chromatograms.
The metabolite structure elucidation was performed using the linear trap quadrupole Orbitrap XL hybrid Fourier transform (FT) MS (Thermo Scientific, Dreieich, Germany) coupled to a Waters Acquity UPLC system. Full-scan FT spectra were acquired for measurement of the masses of molecular ions of parent and metabolites. MS^2 fragmentation spectra were acquired after high-energy collisional dissociation of the appropriate molecular ions. Allocation and confirmation of the proposed metabolites to the radioactive peaks were performed using an API4000 QTrap (AB Sciex, Darmstadt, Germany) MS with simultaneous splitting using a fraction collection system (CTC HTS PAL Fraction Collector, Axel Semrau, Sprockhövel, Germany), and offline radioactive measurement using a Topcount NXT® microplate scintillation counter (PerkinElmer, Rodgau, Germany).
The maximum plasma concentration (Cmax) and time to reach maximum concentration (tmax) were derived directly from the plasma concentration–time data. Lag time (tlag) was the time prior to the first measurable (non-zero) concentration. The area under the plasma concentration–time curve from 0 to t (last measurable concentration; AUC0–t) was calculated using a mixed log–linear trapezoidal method. Area under the plasma concentration–time curve until the last sampling time (AUCall), which corresponds to AUC0–240 h within the observation period, was used for metabolite calculations. Amounts excreted in urine, feces, and total (urine + feces) were calculated as the sum of amounts (concentration multiplied by volume) for each collection from time 0 to time t. The terminal rate constant (λz) was used to estimate the terminal half-life (t½) (ln 2/λz), and the area under the concentration–time curve from time 0 to infinity (AUC0–∞). Total body clearance (CL) and apparent body clearance (CL/f) were determined by dose/AUC0–∞, and total volume of distribution (Vz) and apparent volume of distribution (Vz/f) were calculated by dose/(AUC0–∞*λz) after IV and oral administration, respectively. Volume of distribution of the central compartment (Vc) was derived by dividing the dose by the initial drug plasma concentration after IV administration. Absolute bioavailability was calculated as F = (AUCoral/doseoral)/(AUCIV/doseIV) × 100. The ratios (%) AUCtepotinib or metabolite/AUCtotal radioactivity were calculated as a percentage of the molar AUCs.

CN1CCC(COc2cnc(-c3cccc(Cn4nc(-c5cccc(C#N)c5)ccc4=O)c3)nc2)CC1 [Tepotinib]
maximum tolerated dose (not reached at doses administered) [1]: > 1400 mg/day
number of TEAEs of grade one severity ([2]; NCI-CTCAE, of 19 TEAEs): 17
deaths, serious or other significant adverse events ([2]; both parts): neither deaths, serious adverse events, nor other significant adverse events were reported
volunteers who experienced TEAEs ([2]; both parts, single 500 mg dose): 75%
healthy volunteers who experienced TEAEs ([2]; both parts, single oral 500 mg): Nine of 12
number of TEAEs ([2]; in nine of 12 volunteers): 19
number of TEAEs judged treatment related ([2]; of 19 TEAEs): Eight
tolerability ([2]; single oral dose of 500 mg, healthy volunteers): well tolerated
biliary excretion of radioactivity [3]: a predominant fraction of radioactivity is excreted unchanged via the bile
fraction unbound at 18 h ([4]; pH 7.4, ex vivo, 4–24 h after oral administration, read-out: highest free fraction observed in individual participants): 0.0325
fraction unbound at 18 h ([4]; pH 7.4, ex vivo, 4–24 h after oral administration, read-out: lowest free fraction observed in individual participants): 0.0165
fraction unbound at 18 h ([4]; pH 7.4, unbound fraction of tepotinib in plasma, median values, ex vivo, range of medians at 4, 8, 12 and 24 h after oral administration): 0.018 to 0.024
% of total radioactive administered dose excreted in feces or urine (excreta) ([5]; feces plus urine): 52%
% of total administered radioactive dose excreted in feces ([5]; feces pool 0–192 h): 45%
% of AUCall of total 14C-radioactivity in plasma ([5]; plasma, AUCall = AUC0–240 h, molar AUC ratio): 55%
% of total administered radioactive dose excreted in urine ([5]; urine pool 4–120 h): 7%
